For the experiment, the system named is DNA polymerase of P. islandicum. Nature of the experiment: Non-radioactive DNA polymerase activity assay: influence of inhibitors and ions. Type of experiment: biochemical, Pyrobaculum islandicum. Particulars: for DNA polymerase activity: pH 7.5, 0.5 mM MgCl2, 0 mM KCl, 0.5 U.

On to `C[C@@]1(CO)[C@H](O)CC[C@@]2(C)[C@H]1CC[C@H]1C[C@@H]3C[C@@]12CC[C@]3(O)CO` [Aphidicolin], for which the DNA polymerase activity (50 µM (17 µg/ml) aphidicolin, 75°C) worked out at 100%; the DNA polymerase activity (200 µM (68 µg/ml) aphidicolin, 75°C) was 70%; the DNA polymerase activity (500 µM (170 µg/ml) aphidicolin, 75°C) came to 55%; the DNA polymerase activity (2000 µM (680 µg/ml) aphidicolin, 75°C) was determined as 21%.

Take `[Cl-].[K+]` [KCl]: where the note is “in the presence of 100 mM KCl, 75°C, pH 7.3, 0.5 mM MgCl2”, the residual activity was 7%.

Consider `CCN1C(=O)C=CC1=O` [N-Ethylmaleimid], for which the DNA polymerase activity reads like this: (1 mM N-Ethylmaleimid, preincubation of enzyme at 90°C for 20 min, 75°C) 40%; (2 mM N-Ethylmaleimid, preincubation of enzyme at 90°C for 20 min, 75°C) 30%; (5 mM N-Ethylmaleimid, preincubation of enzyme at 90°C for 20 min, 75°C) 0%. For the setting “after a preincubation with 5 mM NEM”, the “DNA polymerase activity (in words)” value is “total loss of activity”.

Consider `Nc1nc2c(ncn2[C@H]2CC[C@@H](COP(=O)(O)OP(=O)(O)OP(=O)(O)O)O2)c(=O)[nH]1` [ddGTP], for which the DNA polymerase activity is, setting by setting: (ddGTP/dGTP = 5, 75°C) 95%; (ddGTP/dGTP = 20, 75°C) 53%. In addition, where the note is “ddGTP/dGTP ratio of 2”, the “inhibition of DNA polymerase (in words)” value is reported as “No inhibition”.
